# “Also recorded” adds a separate entry of the source.
# What was measured:
# [1] = basis species not given; ref PPDB: Pesticide Properties DataBase; cited from earlier work
# IAR hepatocytes = assay: CCK-8 cytotoxicity assay, IAR; type: cell-based; conditions: Rattus norvegicus, Hepatocyte; CCK-8, 24 h exposure
# Method: (§1) Human embryonic kidney 293T (HEK293T) cells and rat renal NRK cells were maintained in high-glucose DMEM supplemented with 10% fetal bovine serum (FBS) and 1% penicillin–streptomycin at 37 °C under 5% CO2 until reaching 70–80%. Human liver CCC-HEL-1 cells were cultured under identical conditions but with 20% FBS, while rat normal hepatocytes were grown in high-glucose MEM containing 20% FBS and 1% penicillin–streptomycin. Stock solutions (500 g/L) of eight pesticide standards were prepared in dimethyl sulfoxide (DMSO) and stored at −20 °C. Working concentrations were freshly diluted in serum-containing culture medium prior to each experiment.
# (§2) The cytotoxicity of eight pesticides on four mammalian cell lines was assessed using the Cell Counting Kit-8 (CCK-8) assay. Initially, stock solutions of each pesticide were prepared by dissolving the compound in dimethyl sulfoxide (DMSO) to a final concentration of 500 g/L. For the assay, cells were seeded into 96-well plates at a density of 2 × 10^4 cells per well in 100 µL of medium and incubated for 24 h at 37 °C under a 5% CO2 atmosphere to allow for attachment. Subsequently, the culture medium was replaced with fresh medium containing the pesticides at a series of final concentrations (0, 10, 100, 200, 400, 800, 1000, and 2500 mg/L). Pesticide working concentrations were prepared through serial dilution of the 500 g/L DMSO stock solution, resulting in variable final DMSO concentrations across treatment groups (ranging from 0.002% to 0.5% v/v). A media-only blank (no cells) was included for background absorbance correction, and a solvent control (0.1% DMSO, no pesticide) was used to account for any vehicle effects. All conditions were performed in five replicates. […] At DMSO concentrations ranging from 0.1% to 0.2%, the viability of all four cell lines remained stable above 80%. At a 1% DMSO concentration, the viability of all four cell types was around 50% or higher (Supplementary Figure S5). Following 24 h of exposure, 10 µL of CCK-8 reagent was added to each well. Absorbance Measurement: After an additional 1 h of incubation in the dark, the optical density (OD) at 450 nm was recorded using a microplate reader. Cell viability was calculated by comparing the OD values of treated groups with those of the blank control. Although some test concentrations exceeded the water solubility of the pesticides, the combination of DMSO and serum in the culture medium maintained a uniform exposure system. No precipitation was observed during the experiment, ensuring that the measured effects are attributed to the bioavailable fraction of the compound. […]
# (§3) 1. Pesticide Exposure: After removing the medium, fresh medium containing gradient concentrations (0–2500 mg/L) of each pesticide was added (five replicates per concentration).
# (§4) Following 24 h of exposure, 10 µL of CCK-8 reagent was added to each well.
# (§5) 2. Absorbance Measurement: After 1 h of dark incubation, the OD at 450 nm was measured using a microplate reader.
# (§6) 3. Cell Viability Calculation: Viability was determined by comparing the OD values of treated groups to the blank control. […]
# 293T renal cells [2] = assay: ELISA of toxicity biomarkers (LDH, KIM-1) in culture supernatant, 293T; type: cell-based, human; conditions: 293T cells, 24 h exposure at median lethal concentration, vs control
# Method: The levels of hepatotoxicity biomarkers (ALT, AST, ALP) and nephrotoxicity biomarkers (KIM-1, LDH) in cell culture supernatant were quantified using commercially available ELISA kits (Cloud-Clone Corp., Wuhan, China). 100 μL of the supernatant was added to the pre-coated wells and incubated according to the manufacturer’s protocol (five replicates). After washing, the appropriate detection antibody and substrate were added, and the absorbance was measured at 450 nm using microplate reader. The concentrations of the biomarkers were determined based on standard curves.
# CCC-HEL-1 hepatocytes = assay: CCK-8 cytotoxicity assay, CCC-HEL-1; type: cell-based; conditions: Homo sapiens, Hepatocyte; CCK-8, 24 h exposure
# Method: as §1, §2, §3, §4, §5, §6
# Rat = conditions: rat, in vivo, po; cited from earlier work
# 293T renal cells [3] = assay: CCK-8 cytotoxicity assay, 293T; type: cell-based, human; conditions: Homo sapiens, HEK-293T, 24 h, CCK-8, 24 h exposure
# Method: as §1, §2, §3, §4, §5, §6
# [4] = test system: MRP2 in CCC-HEL-1 hepatic cells; assay: MRP2 immunofluorescence staining, CCC-HEL-1; type: cell-based, human; conditions: CCC-HEL-1 cells, 24 h at IC50, immunofluorescence
# Method: Cells were seeded at a density of 1 × 10^5 cells per well in immunofluorescence-specific glass-bottom dishes and allowed to adhere for 24 h. […] Following treatment, cells were fixed with 4% paraformaldehyde for 15 min at room temperature and permeabilized with 0.1% Triton X-100 for 10 min. Non-specific binding was blocked with 5% bovine serum albumin (BSA) for 1 h at room temperature. Cells were then incubated with primary antibody against MRP2 (1:300 dilution) overnight at 4 °C. After three washes with PBS, cells were treated with secondary antibody (rabbit anti-IgG, 1:600 dilution) for 1 h at room temperature and washed three times with PBS. Anti-MRP2 antibody (Abcam, ab172630) and Alexa Fluor® 488-conjugated anti-rabbit IgG secondary antibody (Cell Signaling Technology, Danvers, MA, USA, 4412) were used for immunofluorescence staining. Nuclei were counterstained with DAPI Staining Solution (C1005, 10 mL) (Beyotime Biotechnology, Shanghai, China). Fluorescent images were captured using a 10× inverted fluorescence microscope. Quantitative analysis of fluorescence intensity was performed using ImageJ software 2.1.0 (National Institutes of Health, Bethesda, MD, USA).
# NRK renal cells = assay: CCK-8 cytotoxicity assay, NRK; type: cell-based; conditions: Rattus norvegicus; CCK-8, 24 h exposure
# Method: as §1, §2, §3, §4, §5, §6
smiles,measurement,setting,value
"CCCC1COC(Cn2cncn2)(c2ccc(Cl)cc2Cl)O1 (centres unmarked) [Propiconazole, propiconazole]",ADI - Acceptable Daily Intake,[1],0.04 mg kg⁻¹ bw day⁻¹
same,IC50,IAR hepatocytes,189 µg/mL
same,LDH release,293T renal cells [2],significantly increased; also recorded: significantly elevated LDH release
same,IC50,CCC-HEL-1 hepatocytes,72.6 µg/mL
same,Mammals - Acute oral LD50,Rat,550 mg/kg
same,IC50,293T renal cells [3],27.2 µg/mL
same,MRP2 upregulation relative to controls,[4],1.5 fold
same,IC50,NRK renal cells,203 µg/mL

# From PMC12656329, “Specific Hepatorenal Toxicity and Cross-Species Susceptibility of Eight Representative Pesticides” (Toxics, 2025)
